Assay results from ChEMBL document CHEMBL5126615, “Identification of RAD51-BRCA2 Inhibitors Using N-Acylhydrazone-Based Dynamic Combinatorial Chemistry” (ACS Med Chem Lett, 2022).
pEC50: −log10 of the molar value. Activity calls are given as the source filed them. No cut-off for these calls is given here.

Test system: not listed separately
Test: Inhibition of recombinant human His-tagged RAD51 expressed in Escherichia coli Rosetta2(DE3)pLysS cells/BRCA2 (unknown origin) by ELISA

pEC50 | SMILES
3.96 | COc1ccc(/C=N/NC(=O)CCCOc2ccc(Cl)cc2Cl)cn1
4.15 | CN(C)c1ccc(/C=N/NC(=O)[C@H](Cc2ccccc2)NC(=O)OC(C)(C)C)cc1
4.30 | O=C(CCCOc1ccc(Cl)cc1Cl)N/N=C/c1ccc2cc[nH]c2c1
4.46 | O=C(CCCOc1ccc(Cl)cc1Cl)N/N=C/c1ccc2nccnc2c1
4.74 | O=C(CCCOc1ccc(Cl)cc1Cl)N/N=C/c1ccc(C(F)(F)F)nc1
4.72 | O=C(CCCOc1ccc(Cl)cc1Cl)N/N=C/c1cccc(C(F)(F)F)c1
4.07 | O=C(CCCOc1ccc(Cl)cc1Cl)N/N=C/c1cc2c(s1)CCCC2
4.72 | O=C(CCCOc1ccc(Cl)cc1Cl)N/N=C/c1cccnc1F
3.89 | Cc1cccc(Cn2nc(C(C)(C)C)cc2C(=O)N/N=C/c2ccc(N(C)C)cc2)c1
4.22 | COc1cccc(/C=N/NC(=O)CCCOc2ccc(Cl)cc2Cl)c1

Molecular target: T1, DNA repair protein RAD51 homolog 1 (Homo sapiens) (UniProt Q06609)
T1 sequence (whole entry): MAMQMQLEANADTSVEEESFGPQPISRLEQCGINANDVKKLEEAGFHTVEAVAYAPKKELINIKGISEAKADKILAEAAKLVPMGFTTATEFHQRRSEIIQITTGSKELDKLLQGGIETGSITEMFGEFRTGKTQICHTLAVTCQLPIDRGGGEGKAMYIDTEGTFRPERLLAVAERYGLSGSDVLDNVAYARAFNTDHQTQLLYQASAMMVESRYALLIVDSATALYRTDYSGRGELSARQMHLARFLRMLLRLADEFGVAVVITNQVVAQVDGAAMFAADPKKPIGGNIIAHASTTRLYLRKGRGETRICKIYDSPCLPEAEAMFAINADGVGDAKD
Test: Binding affinity to recombinant human His-tagged RAD51 expressed in Escherichia coli Rosetta2(DE3)pLysS cells by 19F-NMR assay

Activity | SMILES
Active | O=C(CCCOc1ccc(Cl)cc1Cl)N/N=C/c1cccnc1F
